In ChEMBL document CHEMBL1131666, “Discovery of a novel series of selective MMP inhibitors: identification of the gamma-sulfone-thiols” (Bioorg Med Chem Lett, 1999):

How the values were obtained:
Collagenase 3 = Collagenase 3 (Homo sapiens, UniProt P45452); experiment: Inhibition of Matrix metalloprotease-13 (MMP-13)
Interstitial collagenase = biological target: T1, Interstitial collagenase (Homo sapiens, UniProt P03956); experiment: Inhibition of matrix metalloprotease-1 (MMP-1)
T1 sequence (P03956 whole entry): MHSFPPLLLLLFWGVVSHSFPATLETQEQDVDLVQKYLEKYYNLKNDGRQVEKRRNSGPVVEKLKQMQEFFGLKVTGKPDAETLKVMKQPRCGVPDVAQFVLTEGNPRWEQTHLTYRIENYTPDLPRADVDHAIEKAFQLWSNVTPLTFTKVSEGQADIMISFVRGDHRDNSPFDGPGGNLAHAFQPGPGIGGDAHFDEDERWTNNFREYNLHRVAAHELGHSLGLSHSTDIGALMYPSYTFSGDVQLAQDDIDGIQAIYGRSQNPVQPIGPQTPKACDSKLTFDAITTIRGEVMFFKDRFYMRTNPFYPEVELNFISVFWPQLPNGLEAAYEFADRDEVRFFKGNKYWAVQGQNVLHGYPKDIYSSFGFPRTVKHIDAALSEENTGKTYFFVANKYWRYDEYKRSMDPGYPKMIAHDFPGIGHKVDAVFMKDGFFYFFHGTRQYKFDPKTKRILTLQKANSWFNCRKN

Stromelysin-1 = Stromelysin-1 (Homo sapiens, UniProt P08254); experiment: Inhibition of matrix metalloprotease-3 (MMP-3)
Neutrophil collagenase = Neutrophil collagenase (Homo sapiens, UniProt P22894); experiment: Inhibition of Matrix metalloprotease-8
Chain of Neutrophil collagenase (P22894 whole entry): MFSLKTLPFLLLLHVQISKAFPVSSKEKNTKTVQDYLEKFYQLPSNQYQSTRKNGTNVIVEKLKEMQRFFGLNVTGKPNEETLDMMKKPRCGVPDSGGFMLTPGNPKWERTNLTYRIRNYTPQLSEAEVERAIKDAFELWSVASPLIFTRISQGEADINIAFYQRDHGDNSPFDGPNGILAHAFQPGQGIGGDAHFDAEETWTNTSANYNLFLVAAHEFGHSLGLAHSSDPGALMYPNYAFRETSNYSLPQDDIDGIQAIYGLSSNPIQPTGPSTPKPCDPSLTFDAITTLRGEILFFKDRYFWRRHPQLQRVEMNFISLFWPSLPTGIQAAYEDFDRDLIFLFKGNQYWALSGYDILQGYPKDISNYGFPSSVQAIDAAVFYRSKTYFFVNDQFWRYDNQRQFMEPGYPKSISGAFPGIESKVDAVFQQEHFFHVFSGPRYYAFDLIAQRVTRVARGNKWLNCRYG

Chain of Stromelysin-1 (P08254 whole entry): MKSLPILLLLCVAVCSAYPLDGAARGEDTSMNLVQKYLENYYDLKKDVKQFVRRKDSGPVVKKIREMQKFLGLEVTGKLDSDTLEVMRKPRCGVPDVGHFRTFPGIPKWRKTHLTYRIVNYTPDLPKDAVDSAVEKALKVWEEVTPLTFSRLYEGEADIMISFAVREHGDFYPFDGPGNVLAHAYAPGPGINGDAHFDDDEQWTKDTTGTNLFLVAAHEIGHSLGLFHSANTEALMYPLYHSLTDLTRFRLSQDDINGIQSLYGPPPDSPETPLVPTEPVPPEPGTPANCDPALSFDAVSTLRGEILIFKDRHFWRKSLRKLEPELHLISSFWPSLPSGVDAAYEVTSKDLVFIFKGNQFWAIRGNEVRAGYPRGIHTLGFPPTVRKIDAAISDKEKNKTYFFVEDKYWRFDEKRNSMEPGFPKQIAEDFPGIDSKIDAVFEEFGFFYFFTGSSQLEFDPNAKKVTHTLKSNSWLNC

IC50 (Collagenase 3) [nM]	IC50 (Interstitial collagenase) [nM]	IC50 (Stromelysin-1) [nM]	IC50 (Neutrophil collagenase) [nM]	Structure (SMILES)
32	8000	–	–	COc1ccc(S(=O)(=O)CCC(C)S)cc1 (stereo not drawn)
–	4000	–	–	COC(=O)C(S)CCS(=O)(=O)c1ccc(OC)cc1 (stereo not drawn)
6	–	–	–	CCCC(CCS)S(=O)(=O)c1ccc(OC)cc1 (stereo not drawn)
–	> 10000	–	–	COc1ccc(S(=O)(=O)CC(C)(C)CS)cc1
–	> 10000	–	–	CCCCC(S)CCS(=O)(=O)c1ccc(OC)cc1 (stereo not drawn)
250	5000	–	–	COc1ccc(S(=O)(=O)C[C@@H](C)CS)cc1
–	> 10000	–	–	COc1ccc(S(=O)(=O)C(CCS)c2ccccc2)cc1 (stereo not drawn)
0.5	1500	500	4	O=S(=O)(CCCS)c1ccc(Oc2ccccc2)cc1
–	> 10000	–	–	COc1ccc(S(=O)(=O)C[C@H](C)CS)cc1
–	> 10000	150	36	O=S(=O)(CCCS)c1ccc(Sc2ccccc2)cc1
–	> 10000	–	–	COc1ccc(S(=O)(=O)CCCS)cc1
